The results in this text go back to patent US12589087B2, “Enantiomer selective action on neurotransmission” (The Board of Trustees of the Leland Stanford Junior …, priority 2021, dated 2026).

One may read the half-life as the time in which the quantity being followed falls by half. The low end stands for fast loss, the high end for slow loss.

Data set [1] has as its target T1, human glutamine synthetase (Homo sapiens, UniProt P15104).
T1 construct: purchased Abcam ab222354
In words: Catalysis of 2MeGlu C5-amidation by glutamine synthetase. The class given is biochemical. As to the method:
The procedure was adapted from an existing protocol. To a reaction mixture in a 1.5 mL microcentrifuge tube containing 10 mM substrate, 10 mM ATP, 20 mM MgCl2, 40 mM NH4Cl, 25 mM 2-mercaptoethanol in 100 mM imidazole-HCl buffer pH 7.0, recombinant human glutamine synthetase (final concentration: 5 ng/mL) was added. The tubes were incubated in a preheated thermomixer at 37° C. and shaken at 600 rpm (30 s on, 30 s off). 5 μL aliquots were collected in triplicate every 5 min and immediately diluted with 195 μL of cold 60% ACN containing 10 μM Glu-d5 and Gln-d5 as internal standards in a 96 well plate. After collecting all samples, 200 μL of ACN was added to all wells and the plate was shaken at 1000 rpm for 5 min at room temperature, and then stored at −80° C. until analysis.

Data set [2] can be described thus: Pharmacokinetics of 2MeGlu and 2MeGln in mice. Type of data set: in vivo. To be noted: 100 mg/kg IP, mouse brain; for time of peak brain concentration: for rac-2MeGln: 2MeGln. As to the method: C57BL/6 mice (Jackson Laboratory cat. no. 000664) were administered 100 mg/kg IP. […] Whole brain was promptly dissected and one half frozen at −80° C. until homogenization in ice cold PBS (pH 7.4) using a probe ultrasonic homogenizer (Branson Sonifier 450, Power: 5, Cycle: 30%, time: 10 s) on ice. The lysate was centrifuged (2,500 g for 15 min at 4° C.) and the supernatant was assayed using Pierce BCA Protein Assay Kit (23225) using BioTek Epoch plate spectrophotometer by recording absorbance at 562 nm. Two or three 10 μL aliquots of the homogenate were transferred to a 96 well plate and extracted with 190 μL of 60% acetonitrile in water containing 10 μM GABA-d6 or 10 μM Glu-d5 and Gln-d5 as internal standards. 40 μL aliquots of the extracts were then diluted with 120 μL of acetonitrile and prepared for LC-MS/MS analysis. Brain and serum half-lives were calculated using the ‘PKNCA’ package for R. Endogenous levels of Glu, Gln and GABA were determined in the brains of mice used in the pharmacokinetics experiment. MRM transitions specific for Glu, Gln and GABA were monitored simultaneously.

Data set [3] has as its system C57Bl/6 mice. Type of data set: in vivo. The following applies: for distance moved in the novel cage: single 100, 300, or 900 mg/kg IP, dose- and time-dependent. As to the method: (§1) Dosing: (R)-2MeGlu (30, 100, 300, or 900 mg/kg), (S)-2MeGlu (30, 100, 300, or 900 mg/kg), rac-2MeGln (30, 100, 300, or 900 mg/kg) and vehicle (PBS) were administered at 10 ml/kg IP dosing volume. Three mice were dosed once with the assigned drug (100, 300, or 900 mg/kg) or vehicle and immediately placed in a new cage for novel cage observation. Subsequently, six mice were dosed once with the assigned drug (30 or 100 mg/kg) or vehicle and tested by SHIRPA, activity chamber, and then hot plate tests.
The mouse was dosed and immediately placed in the center of a clean, Innovive disposable rat cage with bedding (dimensions: 17″L×13.4″W×7.8″H) and allowed to move freely while being tracked automatically. Mice were monitored with Ethovision XT tracking software for the distance moved and average velocity during the 60-minute trial. They were returned to their home cage after the test. A new cage was used for each mouse.
(§2) Exploratory behavioral tests were performed exactly as previously described by us using 2-month-old C57Bl/6 male mice, Example 1. First, we assessed safety and tolerability of acute exposure to 4APA enantiomers in 22 mice by novel cage observation at 100, 300, or 900 mg/kg IP compared to vehicle (PBS) IP (n=3 or 4 mice per group without sample calculation, based on our previous study. Next, we evaluated 24 drug naïve mice with a 23-measure battery of neurologic dysfunction in mice (SHIRPA) (Rogers et al., 2001), automated activity chamber assessment, and hot plate latency acutely following 30 or 100 mg/kg IP compared to vehicle IP (n=4 or 5 mice per group). No exclusion criteria were predetermined and no randomization was performed to allocate subjects in the study.

Data set [4] relates to C57Bl/6 mice. Description: SHIRPA, activity chamber open field and hot plate after single injection. The class given is in vivo, mouse. As to the method: as §1
Hot Plate apparatus (IITC Inc. Model 39) was set to 55° C.±0.2. On testing day, mice were placed on the surface of the hot plate and covered by a transparent glass cylinder (25 cm high and 12 cm diameter). A 30 second cutoff time was assigned. A remote foot-switch pad was used to control the start/stop/reset function. Latency time was recorded when hind paw licking or jumping off first occurred.
The SHIRPA preliminary screen designed by Rogers et al. (1997) was modified and used to assess the general health and behavioral traits of the mice for the initial five minutes after drug administration. The test was conducted in three different testing locations: A cylindrical clear plastic viewing jar (15 cm height×10 cm diameter), a polycarbonate cage (Arena) with 10 cm×10 cm squares on the floor, and a 1 cm×1 cm wire grid. The test began by placing the mouse in the clear plastic viewing jar for 60 seconds, and the behavioral parameters were monitored and recorded. The mouse was then transferred to an open-top arena by releasing them from 25 cm above the floor of the arena. Upon completion of monitoring the parameters inside the arena, the mouse was removed from the arena by the tail. Behavioral parameters monitored were according to Portmann et al. (2014).
Assessment was made in an Open Field Activity Arena (Med Associates Inc., St. Albans, VT. Model ENV-515) mounted with three planes of infrared detectors within a specially designed sound-attenuating chamber (Med Associates Inc., St. Albans, VT. MED-017M-027). The arena was 43 cm (L)×43 cm (W)×30 cm (H) and the sound-attenuating chamber was 74 cm (L)×60 cm (W)×60 cm (H). The mice were placed in the corner of the testing arena and allowed to explore the arena for 60 min while being tracked automatically. Parameters measured include distance moved, velocity, rearing, and times spent in the periphery and center of the Arena. Periphery was defined as the zone 5 cm away from the arena wall. The Arena was cleaned with a 1% Virkon solution at the end of the trial. […] The novel cage protocol is conducted on the benchtop in a lighted room using a clean home cage, and tests habituation using video recording and scoring of behavioral performance. Moreover, the novel cage allows the tester to visualize any other side effects such as seizure or repetitive jumping. The activity chamber is in an enclosed box, and the test is done in the dark, without bedding, and in a sound isolating chamber. The activity chamber measures distance moved using infrared beams and without video recordings.
as §2

[5] abbreviates: single 30 mg/kg IP, only at 11 minutes post injection.
Where [6] appears, read: single 100 mg/kg IP, up to 6 minutes post injection.

Each structure is given as a SMILES string. Some results are limits rather than exact numbers.

T1 sequence (P15104 whole entry): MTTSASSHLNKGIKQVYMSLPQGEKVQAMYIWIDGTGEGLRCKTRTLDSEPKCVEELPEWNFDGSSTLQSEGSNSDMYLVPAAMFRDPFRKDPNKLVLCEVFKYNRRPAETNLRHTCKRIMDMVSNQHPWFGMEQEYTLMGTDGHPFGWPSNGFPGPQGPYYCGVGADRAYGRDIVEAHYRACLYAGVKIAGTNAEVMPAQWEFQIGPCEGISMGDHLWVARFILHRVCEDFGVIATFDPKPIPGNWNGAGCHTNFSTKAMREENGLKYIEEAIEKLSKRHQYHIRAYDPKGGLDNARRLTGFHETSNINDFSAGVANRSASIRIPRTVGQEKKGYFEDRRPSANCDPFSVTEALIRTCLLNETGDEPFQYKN

Turning to `C[C@@](N)(CCC(=O)O)C(=O)O` [(R)-2MeGlu, (R)-2-methylglutamic acid], in data set [1], the “substrate of GS (amidation to 2MeGln)” value is given as “not a substrate”. In data set [2], the maximum brain concentration is on record as 30 pmol/mg protein and the “time of peak brain concentration” value is no more than 5 min. Besides, the half-life in data set [2] (C57BL/6) was roughly 1.17 h. Further, in the data set with C57Bl/6 mice [3] (mouse, in vivo), the “mortality after single dose” value is on record as “one mouse died”. The “distance moved in the novel cage” value with C57Bl/6 mice [3] is “significantly decreased”. In addition, the “distance moved in the activity chamber vs vehicle” value (from here on “distance moved … vs vehicle”) in the data set on C57Bl/6 mice [4] (setting [5]) is “modest but significant reduction”. Further, in the data set on C57Bl/6 mice [4] (setting [6]), the “distance moved … vs vehicle” value is listed as “significantly reduced”.

On to `CC(N)(CCC(N)=O)C(=O)O` (racemic) [rac-2MeGln, rac-2-methylglutamine], for which the “time of peak brain concentration” value in data set [2] was found to be 25 min. The figures for the “distance moved … vs vehicle” value in the data set with C57Bl/6 mice [4] (setting [5]) and with C57Bl/6 mice [4] (setting [6]) were “modest but significant reduction” and “not significantly different from vehicle at any time point”, respectively.

Take `C[C@](N)(CCC(=O)O)C(=O)O` [(S)-2MeGlu, (S)-2-methylglutamic acid]: the “substrate of GS (amidation to 2MeGln)” value in data set [1] was “substrates”. The maximum brain concentration in data set [2] is recorded as 50 pmol/mg protein. The “time of peak brain concentration” value in data set [2] is 25 min. In addition, in the data set on C57Bl/6 mice [3], the “distance moved in the novel cage” value is on record as “significantly decreased”. For the same molecule, the “distance moved … vs vehicle” value in the data set on C57Bl/6 mice [4] (setting [5]) was “not significantly different”; in the data set with C57Bl/6 mice [4] (setting [6]), “significantly reduced”.
